In US20130261077A1 (priority 2012, published 2013):

Columns and labels:
FimH-CRD [1] = target: T1, FimH-CRD (Escherichia coli, UniProt P08191); assay: Competitive binding assay by fluorescence polarization, assay 2 (compounds prepared by robotics, plates frozen and thawed)
T1 construct: The first 177 amino acids of the FimH protein; thrombin tag (printed as 'fusion protein with thrombin') (cleaved yes); made in house; host or cells: bacteria (pET21b plasmid)
Protocol: The first 177 amino acids of the FimH protein were expressed as a fusion protein with thrombin in a pET21b plasmid in bacteria. This FimH protein sequence contains the carbohydrate recognition domain (CRD) and shall be termed FimH-CRD. Following bacterial expression of the protein, the FimH-CRD protein was purified to homogeneity and the thrombin tag removed by protease cleavage. A competitive binding assay by fluorescence polarization was performed using 5 nM of the Alexa 647 mannoside probe and 60 nM of the FimH-CRD. The samples are assayed in a low volume 384 well microtiter plate in a final volume of 20 μl. The final assay buffer conditions are the following, 50 mM Tris-Cl, ph 7.0, 100 mM NaCl, 1 mM EDTA, 5 mM β-mercaptoethanol, 0.05% BSA and 2.5% DMSO. Two assays are performed for FimH, termed assay 1 or assay 2. The assay conditions are the same for both assays except the following: assay 1 has compounds prepared by manual dilution in a serial dilution factor with 12-point dose response while assay 2 has compounds prepared by a robotics system also through a serial dilution factor (12 point dose response) and initially prepared in duplicate in 384 well-Corning polypropylene round bottom plates. The assay 2 plates have compound which is then frozen and must be thawed prior to use. Initially the Alexa 647 probe and the FimH-CRD are added to the assay buffer and then 0.5 μl of test compound (assay 1 or 2) between 0.4 nM to 75 μM final concentration are added (12 point titration with 3-fold serial dilution). Control wells for the Alexa 647 probe are prepared with the same conditions except for the addition of the FimH-CRD protein. Plates are then incubated for 5 hrs at room temperature in the dark and under humid conditions to prevent drying. Plates are read using the SpectraMax Paradigm multi-mode plate reader and the appropriate fluorescent polarization detection cartridge (Alexa-647).
Alexa 647 mannoside probe is prepared using the similar procedure reported for FAM mannoside (Han, Z. et. al., 2010, J. Med. Chem., 53, 4779) and is described in the scheme below.
To a blue colored stirred solution of (2S,3S,4S,5S,6R)-2-(4-aminobutoxy)-6-(hydroxymethyl)tetrahydropyran-3,4,5-triol (2.21 mg, 0.009 mmol) and the (2E)-2-[(2E,4E)-5-[3,3-dimethyl-5-sulfonato-1-(3-sulfonatopropyl)indol-1-ium-2-yl]penta-2,4-dienylidene]-3-[6-(2,5-dioxopyrrolidin-1-yl)oxy-6-oxo-hexyl]-3-methyl-1-(3-sulfonatopropyl)indoline-5-sulfonate (Potassium Ion (3)) (4.9 mg, 0.0044 mmol) in DMF (44 μL) is added Et3N (5.4 mg, 7.0 μL, 0.053 mmol) at RT. The solution is stirred at room temperature over night, concentrated, dissolved in water and purified on 12 g C-18 silica gel cartridge on Isolera system using acetonitrile in water (0 to 40%, 10 CV) and followed by lyophilization to afford Alexa 647 mannoside probe (3.3 mg, 34%) as deep blue solid.
The Kd values of the compounds are determined from dose response curves using twelve concentrations per compound in duplicate. Curves are fitted to data points using Fluorescence Polarization competitive displacement analysis, and Kds are interpolated from the resulting curves using GraphPad Prism software, version […] (GraphPad software Inc., San Diego, Calif., USA).

FimH-CRD [2] = target: T1, FimH-CRD; assay: Competitive binding assay by fluorescence polarization, assay 1 (compounds prepared by manual serial dilution)
How it was run: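 Fluorescence-polarization competition of 5 nM Alexa 647 mannoside probe with 60 nM FimH-CRD (first 177 residues, tag removed) in Tris-Cl pH 7.0, NaCl, EDTA, β-ME, BSA, 2.5% DMSO, 5 h at RT in the dark. Twelve-point 3-fold titrations (0.4 nM–75 μM) in duplicate; Kd interpolated from displacement curves.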

T1 sequence (P08191 22-177): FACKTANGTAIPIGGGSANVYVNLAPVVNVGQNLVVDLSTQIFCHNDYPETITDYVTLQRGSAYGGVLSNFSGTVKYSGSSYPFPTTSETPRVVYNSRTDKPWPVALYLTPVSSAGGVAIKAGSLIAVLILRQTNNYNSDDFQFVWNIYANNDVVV

Row | Compound | Kd (FimH-CRD [1]) | Kd (FimH-CRD [2])
1 | C#Cc1cccc([C@H]2O[C@H](CO)[C@@H](O)[C@H](O)[C@@H]2O)c1 [Compound 73, ((2R,3S,4R,5S,6R)-2-(3-Ethynylphenyl)-6-(hydroxymethyl)tetrahydropyran-3,4,5-triol)] | 33.8 ± 13.6 nM | –
2 | C#Cc1ccc([C@H]2O[C@H](CO)[C@@H](O)[C@H](O)[C@@H]2O)cc1 [Compound 74, (2R,3S,4R,5S,6R)-2-(4-Ethynylphenyl)-6-(hydroxymethyl)tetrahydropyran-3,4,5-triol] | 26.4 ± 14.3 nM | –
3 | C#Cc1cc([C@H]2O[C@H](CO)[C@@H](O)[C@H](O)[C@@H]2O)ccc1OC [Compound 75, (2R,3S,4R,5S,6R)-2-(3-Ethynyl-4-methoxy-phenyl)-6-(hydroxymethyl)tetrahydropyran-3,4,5-triol] | 40 ± 11.3 nM | –
4 | Cc1c(Br)cccc1[C@H]1O[C@H](CO)[C@@H](O)[C@H](O)[C@@H]1O [Compound 76, (2R,3S,4R,5S,6R)-2-(3-Bromo-2-methyl-phenyl)-6-(hydroxymethyl)tetrahydropyran-3,4,5-triol] | 38.9 ± 13 nM | –
5 | COc1cc([C@H]2O[C@H](CO)[C@@H](O)[C@H](O)[C@@H]2O)ccc1Br [Compound 77] | 81.7 ± 11 nM | –
6 | COC(=O)c1cccc(Cn2cc(-c3ccc([C@H]4O[C@H](CO)[C@@H](O)[C@H](O)[C@@H]4O)cc3)nn2)c1 [Compound 80, Methyl 3-[[4-[4-[(2R,3S,4R,5S,6R)-3,4,5-trihydroxy-6-(hydroxymethyl)tetrahydropyran-2-yl]phenyl]triazol-1-yl]methyl]benzoate] | 12.3 ± 6.2 nM | –
7 | OC[C@H]1O[C@H](c2ccc(-c3cn(Cc4ccccc4)nn3)cc2)[C@@H](O)[C@@H](O)[C@@H]1O [Compound 81, (2R,3S,4R,5S,6R)-2-[4-(1-Benzyltriazol-4-yl)phenyl]-6-(hydroxymethyl)tetrahydropyran-3,4,5-triol] | 15.2 ± 4.3 nM | –
8 | COC(=O)c1cc(C#Cc2cc([C@H]3O[C@H](CO)[C@@H](O)[C@H](O)[C@@H]3O)ccc2OC)cc(C(=O)OC)c1 [Compound 82, Dimethyl 5-[2-[2-methoxy-5-[(2R,3S,4R,5S,6R)-3,4,5-trihydroxy-6-(hydroxymethyl)tetrahydropyran-2-yl]phenyl]ethynyl]benzene-1,3-dicarboxylate] | 23.2 ± 15.1 nM | –
9 | CNC(=O)c1cccc(C#Cc2cc([C@H]3O[C@H](CO)[C@@H](O)[C@H](O)[C@@H]3O)ccc2OC)c1 [Compound 83, 3-[2-[2-Methoxy-5-[(2R,3S,4R,5S,6R)-3,4,5-trihydroxy-6-(hydroxymethyl)tetrahydropyran-2-yl]phenyl]ethynyl]-N-methyl-benzamide] | 32.2 ± 5.8 nM | –
10 | CNC(=O)c1cc(C#Cc2cc([C@H]3O[C@H](CO)[C@@H](O)[C@H](O)[C@@H]3O)ccc2OC)cc(C(=O)NC)c1 [Compound 84, 5-[2-[2-Methoxy-5-[(2R,3S,4R,5S,6R)-3,4,5-trihydroxy-6-(hydroxymethyl)tetrahydropyran-2-yl]phenyl]ethynyl]-N1,N3-dimethyl-benzene-1,3-dicarboxamide] | 27.5 ± 3.9 nM | –
11 | CNC(=O)c1cc(C#Cc2cccc([C@H]3O[C@H](CO)[C@@H](O)[C@H](O)[C@@H]3O)c2)cc(C(=O)NC)c1 [Compound 85, N1,N3-Dimethyl-5-[2-[3-[(2R,3S,4R,5S,6R)-3,4,5-trihydroxy-6-(hydroxymethyl)tetrahydropyran-2-yl]phenyl]ethynyl]benzene-1,3-dicarboxamide] | < 5 nM | –
12 | COC(=O)c1cccc(C#Cc2cccc([C@H]3O[C@H](CO)[C@@H](O)[C@H](O)[C@@H]3O)c2)c1 [Compound 86, Methyl 3-[2-[3-[(2R,3S,4R,5S,6R)-3,4,5-trihydroxy-6-(hydroxymethyl)tetrahydropyran-2-yl]phenyl]ethynyl]benzoate] | 23.7 ± 10.8 nM | –
13 | COC(=O)c1ccc(C#Cc2cccc([C@H]3O[C@H](CO)[C@@H](O)[C@H](O)[C@@H]3O)c2)cc1 [Compound 87, Methyl 4-[2-[3-[(2R,3S,4R,5S,6R)-3,4,5-trihydroxy-6-(hydroxymethyl)tetrahydropyran-2-yl]phenyl]ethynyl]benzoate] | 6.8 ± 0.2 nM | –
14 | COC(=O)c1cccc(C#Cc2ccc([C@H]3O[C@H](CO)[C@@H](O)[C@H](O)[C@@H]3O)cc2)c1 [Compound 88, Methyl 3-[2-[4-[(2R,3S,4R,5S,6R)-3,4,5-trihydroxy-6-(hydroxymethyl)tetrahydropyran-2-yl]phenyl]ethynyl]benzoate] | 11.8 ± 7.9 nM | –
15 | COC(=O)c1ccc(C#Cc2ccc([C@H]3O[C@H](CO)[C@@H](O)[C@H](O)[C@@H]3O)cc2)cc1 [Compound 89, Methyl 4-[2-[4-[(2R,3S,4R,5S,6R)-3,4,5-trihydroxy-6-(hydroxymethyl)tetrahydropyran-2-yl]phenyl]ethynyl]benzoate] | 14.5 ± 2.2 nM | –
16 | CNC(=O)c1cc(C#Cc2cccc([C@H]3O[C@H](CO)[C@@H](O)[C@H](O)[C@@H]3O)c2C)cc(C(=O)NC)c1 [Compound 90, N1,N3-Dimethyl-5-[2-[2-methyl-3-[(2R,3S,4R,5S,6R)-3,4,5-trihydroxy-6-(hydroxymethyl)tetrahydropyran-2-yl]phenyl]ethynyl]benzene-1,3-dicarboxamide] | 20.3 ± 2.2 nM | –
17 | OC[C@H]1O[C@H](c2cccc(C#Cc3ccccc3)c2)[C@@H](O)[C@@H](O)[C@@H]1O [Compound 91, (2R,3S,4R,5S,6R)-2-(Hydroxymethyl)-6-[3-(2-phenylethynyl)phenyl]tetrahydropyran-3,4,5-triol] | 23.6 ± 8.7 nM | –
18 | CNC(=O)c1cccc(C#Cc2cccc([C@H]3O[C@H](CO)[C@@H](O)[C@H](O)[C@@H]3O)c2)c1 [Compound 93, N-Methyl-3-[2-[3-[(2R,3S,4R,5S,6R)-3,4,5-trihydroxy-6-(hydroxymethyl)tetrahydropyran-2-yl]phenyl]ethynyl]benzamide] | 7.5 ± 2.5 nM | –
19 | CNC(=O)c1cc(/C=C/Cc2cccc([C@H]3O[C@H](CO)[C@@H](O)[C@H](O)[C@@H]3O)c2)cc(C(=O)NC)c1 [Compound 94, N1,N3-Dimethyl-5-[(E)-3-[3-[(2R,3S,4R,5S,6R)-3,4,5-trihydroxy-6-(hydroxymethyl)tetrahydropyran-2-yl]phenyl]prop-1-enyl]benzene-1,3-dicarboxamide] | 94.4 ± 13 nM | –
20 | OC[C@H]1O[C@H](c2cccc(C/C=C/c3cc(Cl)cc(Cl)c3)c2)[C@@H](O)[C@@H](O)[C@@H]1O [Compound 95, (2R,3S,4R,5S,6R)-2-[3-[(E)-3-(3,5-Dichlorophenyl)allyl]phenyl]-6-(hydroxymethyl)tetrahydropyran-3,4,5-triol] | 34 ± 7.8 nM | –
21 | OC[C@H]1O[C@H](c2cccc(C/C=C/c3ccccc3)c2)[C@@H](O)[C@@H](O)[C@@H]1O [Compound 96, (2R,3S,4R,5S,6R)-2-[3-[(E)-Cinnamyl]phenyl]-6-(hydroxymethyl)tetrahydropyran-3,4,5-triol] | 29 ± 2.3 nM | –
22 | CNC(=O)c1cc(CCCc2cccc([C@H]3O[C@H](CO)[C@@H](O)[C@H](O)[C@@H]3O)c2)cc(C(=O)NC)c1 [Compound 97, N1,N3-Dimethyl-5-[3-[3-[(2R,3S,4R,5S,6R)-3,4,5-trihydroxy-6-(hydroxymethyl)tetrahydropyran-2-yl]phenyl]propyl]benzene-1,3-dicarboxamide] | 31.6 ± 17.5 nM | –
23 | OC[C@H]1O[C@H](c2cccc(CCCc3cc(Cl)cc(Cl)c3)c2)[C@@H](O)[C@@H](O)[C@@H]1O [Compound 98, (2R,3S,4R,5S,6R)-2-[3-[3-(3,5-Dichlorophenyl)propyl]phenyl]-6-(hydroxymethyl)tetrahydropyran-3,4,5-triol] | 27.8 ± 2.1 nM | –
24 | CNC(=O)c1ccc(-c2ccc([C@H]3O[C@H](CO)[C@@H](O)[C@H](O)[C@@H]3O)cc2)cc1 [Compound 296, N-methyl-4′-((2R,3S,4R,5S,6R)-3,4,5-trihydroxy-6-(hydroxymethyl)tetrahydro-2H-pyran-2-yl)-[1,1′-biphenyl]-4-carboxamide] | – | 5 ± 0.4 nM
